The text below walks through data of ChEMBL document CHEMBL1127947, “Synthesis and evaluation of n-substituted 1-(5-fluoro-2-pyrimidinyl)piperazine derivatives as potential anti-ischemic agents” (Bioorg Med Chem Lett, 1994).

The first assay has as its system Rattus norvegicus. The experiment in a line: In vivo neuroprotective activity to block nitrogen (N2) lethality in male Dawley rats by ip administration at a dose of 50/100 mg/kg. It is filed as functional.
Settings: not given
In turn, `OC(CCCN1CCN(c2ncc(F)cn2)CC1)c1ccc(F)cc1` (configuration not stated) [BMY-14802] displayed a Protection of 63%.

The next assay relates to Rattus norvegicus. The experiment in a line: In vivo neuroprotective activity to block nitrogen (N2) lethality in male Dawley rats by ip administration at a dose of 100 mg/kg. It counts as functional. Particulars: route intraperitoneal.
As for `OC(CCCN1CCN(c2ncc(F)cn2)CC1)c1ccc(F)c2ccccc12` (configuration not stated), the Protection is 100%.

The target in a further assay is 5-hydroxytryptamine receptor 2A (Rattus norvegicus, UniProt P14842). Kind of assay: In vitro binding affinity towards serotonin 5-HT2A receptor by the displacement of [3H]spiperone from rat cortical membranes. It is filed as cell membranes, Membrane.
Sequence of 5-hydroxytryptamine receptor 2A (P14842 whole entry): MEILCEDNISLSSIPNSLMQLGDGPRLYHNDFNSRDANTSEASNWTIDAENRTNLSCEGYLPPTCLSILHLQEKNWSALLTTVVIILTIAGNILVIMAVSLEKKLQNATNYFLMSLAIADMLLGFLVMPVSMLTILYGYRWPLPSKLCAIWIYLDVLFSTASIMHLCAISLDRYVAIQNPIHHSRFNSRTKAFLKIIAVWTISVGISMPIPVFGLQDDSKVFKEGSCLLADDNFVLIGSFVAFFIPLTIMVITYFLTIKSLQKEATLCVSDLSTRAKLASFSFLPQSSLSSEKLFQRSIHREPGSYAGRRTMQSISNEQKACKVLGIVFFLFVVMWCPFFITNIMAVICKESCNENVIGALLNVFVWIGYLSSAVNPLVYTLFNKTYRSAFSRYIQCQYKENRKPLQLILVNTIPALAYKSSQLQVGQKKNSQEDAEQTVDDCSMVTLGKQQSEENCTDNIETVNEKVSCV
Settings: not given
On the technique in general: Loss of bound radioactivity is the signal in a displacement assay; it reports binding, not function.
With `O=C(NC(CCCN1CCN(c2ncc(F)cn2)CC1)C1CCCCC1)c1ccc(F)cc1` (configuration not stated), the IC50 (commonly the point on the concentration scale where inhibition reaches its midpoint) was 760 nM.

`Fc1cnc(N2CCN(CCCCc3ccc(F)c4ccccc34)CC2)nc1` returned an IC50 of 590 nM.

`OC(CCCN1CCN(c2ncc(F)cn2)CC1)(c1ccc(F)cc1)C1CCCCC1` (configuration not stated) registered an IC50 of 336 nM.

`CC(=O)OC(CCCN1CCN(c2ncc(F)cn2)CC1)c1ccc(F)cc1` (configuration not stated) had an IC50 of 504 nM.

Take `Fc1ccc(OCCCN2CCN(c3ncc(F)cn3)CC2)cc1`: the IC50 worked out at 141 nM.

On to `O=C(NC(CCCN1CCN(c2ncc(F)cn2)CC1)c1ccc(F)cc1)c1ccc(F)cc1` (configuration not stated), for which the IC50 came to 468 nM.

In the case of `O=S(=O)(NC(CCCN1CCN(c2ncc(F)cn2)CC1)c1ccc(F)cc1)c1ccc(F)cc1` (configuration not stated), the IC50 amounted to 3400 nM.

As for `O=S(=O)(NC(CCCN1CCN(c2ncc(F)cn2)CC1)C1CCCCC1)c1ccc(F)cc1` (configuration not stated), the IC50 was 760 nM.

Take `OC(CCCN1CCN(c2ncc(F)cn2)CC1)c1ccc(F)c2ccccc12` (configuration not stated): the IC50 was determined as 1010 nM.

Compound `Fc1ccc(CCCCN2CCN(c3ncc(F)cn3)CC2)cc1` displayed a concentration for half-maximal inhibition (IC50) of 212 nM.

Regarding `OC(CCCN1CCN(c2ncc(F)cn2)CC1)c1ccc(F)cc1` (configuration not stated) [BMY-14802], the IC50 is 1700 nM.

A further assay relates to Rattus norvegicus. Kind of assay: In vivo neuroprotective activity to block nitrogen (N2) lethality in male Dawley rats by ip administration at a dose of 40 mg/kg. It is filed as functional. The settings on record: route intraperitoneal.
Compound `OC(CCCN1CCN(c2ncc(F)cn2)CC1)C1CCCCC1` (configuration not stated) displayed a Protection of 100%.

As to `O=S(=O)(CCCN1CCN(c2ncc(F)cn2)CC1)c1ccc(F)cc1`, the Protection came to 25%.

On to `O=S(=O)(NC(CCCN1CCN(c2ncc(F)cn2)CC1)c1ccc(F)c2ccccc12)c1ccc(F)cc1` (configuration not stated), for which the Protection was determined as 38%.

For `Fc1ccc(SCCCN2CCN(c3ncc(F)cn3)CC2)cc1`, the Protection turned out to be 13%.

Take `OC(CCCN1CCN(c2ncc(F)cn2)CC1)(c1ccc(F)cc1)C1CCCCC1` (configuration not stated): the Protection came to 75%.

The compound `NC(CCCN1CCN(c2ncc(F)cn2)CC1)c1ccc(F)c2ccccc12` (configuration not stated) returned a Protection of 38%.

Compound `Fc1ccc(OCCCN2CCN(c3ncc(F)cn3)CC2)cc1` yielded a Protection of 25%.

The compound `O=C(NC(CCCN1CCN(c2ncc(F)cn2)CC1)c1ccc(F)cc1)c1ccc(F)cc1` (configuration not stated) had a Protection of 88%.

Compound `CC(=O)NC(CCCN1CCN(c2ncc(F)cn2)CC1)c1ccc(F)cc1` (configuration not stated) yielded a Protection of 13%.

Turning to `Fc1ccc(CCCCN2CCN(c3ncc(F)cn3)CC2)cc1`, the Protection amounted to 75%.

The next assay has as its target T1, 5-hydroxytryptamine receptor 1A (Rattus norvegicus, UniProt P19327).
T1 sequence (P19327 whole entry): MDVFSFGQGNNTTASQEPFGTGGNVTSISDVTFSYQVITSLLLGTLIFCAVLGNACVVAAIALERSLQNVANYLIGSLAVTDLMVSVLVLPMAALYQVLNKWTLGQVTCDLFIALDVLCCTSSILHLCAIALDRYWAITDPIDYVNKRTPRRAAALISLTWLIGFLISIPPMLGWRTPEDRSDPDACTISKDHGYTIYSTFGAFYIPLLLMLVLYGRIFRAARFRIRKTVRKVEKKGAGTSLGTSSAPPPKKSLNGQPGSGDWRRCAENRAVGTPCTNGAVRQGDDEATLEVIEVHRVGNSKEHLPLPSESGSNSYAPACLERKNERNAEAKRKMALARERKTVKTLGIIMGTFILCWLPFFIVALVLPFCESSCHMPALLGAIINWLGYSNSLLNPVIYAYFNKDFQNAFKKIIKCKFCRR
The experiment in a line: In vitro binding affinity towards serotonin 5-HT1A receptor by the displacement of [3H]8-OH-DPAT from rat hippocampus. It is filed as tissue-based.
Settings: not given
Regarding `OC(CCCN1CCN(c2ncc(F)cn2)CC1)C1CCCCC1` (configuration not stated), the IC50 worked out at 30 nM.

Regarding `O=S(=O)(CCCN1CCN(c2ncc(F)cn2)CC1)c1ccc(F)cc1`, the IC50 is 461 nM.

As for `Fc1cnc(N2CCN(CCCCc3ccc(F)c4ccccc34)CC2)nc1`, the IC50 was determined as 414 nM.

In the case of `NC(CCCN1CCN(c2ncc(F)cn2)CC1)C1CCCCC1` (configuration not stated), the IC50 came to 257 nM.

In the case of `Fc1ccc(SCCCN2CCN(c3ncc(F)cn3)CC2)cc1`, the IC50 was 129 nM.

`OC(CCCN1CCN(c2ncc(F)cn2)CC1)(c1ccc(F)cc1)C1CCCCC1` (configuration not stated): the IC50 was found to be 50 nM.

For `O=C(OC(CCCN1CCN(c2ncc(F)cn2)CC1)c1ccc(F)cc1)c1ccccc1` (configuration not stated), the IC50 was 581 nM.

As for `NC(CCCN1CCN(c2ncc(F)cn2)CC1)c1ccc(F)c2ccccc12` (configuration not stated), the IC50 is 345 nM.

Compound `CC(=O)OC(CCCN1CCN(c2ncc(F)cn2)CC1)c1ccc(F)cc1` (configuration not stated) gave an IC50 of 46 nM.

`Fc1ccc(OCCCN2CCN(c3ncc(F)cn3)CC2)cc1`: the IC50 turned out to be 145 nM.

In turn, `O=C(NC(CCCN1CCN(c2ncc(F)cn2)CC1)c1ccc(F)cc1)c1ccc(F)cc1` (configuration not stated) registered an IC50 of 106 nM.

In turn, `O=S(=O)(NC(CCCN1CCN(c2ncc(F)cn2)CC1)c1ccc(F)cc1)c1ccc(F)cc1` (configuration not stated) registered an IC50 of 1810 nM.

`Fc1cnc(N2CCN(CCCCC3CCCCC3)CC2)nc1` registered an IC50 of 315 nM.

Regarding `OC(CCCN1CCN(c2ncc(F)cn2)CC1)c1ccc(F)c2ccccc12` (configuration not stated), the IC50 stood at 562 nM.

Compound `CC(=O)NC(CCCN1CCN(c2ncc(F)cn2)CC1)c1ccc(F)cc1` (configuration not stated) gave an IC50 of 289 nM.

Turning to `Fc1ccc(CCCCN2CCN(c3ncc(F)cn3)CC2)cc1`, the IC50 came out at 71 nM.

A further assay concerns Rattus norvegicus. Kind of assay: In vivo neuroprotective activity to block nitrogen (N2) lethality in male Dawley rats by ip administration at a dose of 20 mg/kg. It counts as functional. The settings on record: route intraperitoneal.
As for `O=C(NC(CCCN1CCN(c2ncc(F)cn2)CC1)C1CCCCC1)c1ccc(F)cc1` (configuration not stated), the Protection is 50%.

The compound `Fc1cnc(N2CCN(CCCCc3ccc(F)c4ccccc34)CC2)nc1` registered a Protection of 100%.

Turning to `NC(CCCN1CCN(c2ncc(F)cn2)CC1)C1CCCCC1` (configuration not stated), the Protection is reported as 50%.

The compound `O=S(=O)(NC(CCCN1CCN(c2ncc(F)cn2)CC1)C1CCCCC1)c1ccc(F)cc1` (configuration not stated) had a Protection of 50%.

Another assay has as its system Rattus norvegicus. Kind of assay: In vivo neuroprotective activity to block nitrogen (N2) lethality in male Dawley rats by ip administration at a dose of 80 mg/kg. Particulars: route intraperitoneal. It is filed as functional.
`O=C(OC(CCCN1CCN(c2ncc(F)cn2)CC1)c1ccc(F)cc1)c1ccccc1` (configuration not stated) gave a Protection of 63%.

As to `CC(=O)OC(CCCN1CCN(c2ncc(F)cn2)CC1)c1ccc(F)cc1` (configuration not stated), the Protection is given as 100%.

In the case of `O=S(=O)(NC(CCCN1CCN(c2ncc(F)cn2)CC1)c1ccc(F)cc1)c1ccc(F)cc1` (configuration not stated), the Protection was 100%.

`Fc1cnc(N2CCN(CCCCC3CCCCC3)CC2)nc1` yielded a Protection of 75%.
